# What was measured:
# [1] = molecular target: EGFR^L858R/T790M (Homo sapiens, UniProt P00533, L858R/T790M); assay: HTRF KinEASE-TK in vitro kinase assay, EGFR L858R/T790M (LT); type: biochemical; conditions: EGFR L858R/T790M kinase inhibition
# Text: (§1) The biological activity of compounds described herein can be studied according to standard methods known in the art. Methods can be used to study inhibition of EGFR, including mutant forms of EGFR comprising L858R, T790M, C797S, and/or Del19 mutations, or any combination thereof (e.g., L858R single, double, or triple mutants). Exemplary, non-limiting methods are described herein.
# (§2) Assays using an in vitro kinase assay kit (HTRF KinEASE-TK kit) can be used to study the inhibitory activity of compounds described herein with respect to EGFR mutants such as ECFR^L858R, EGFR^L858R/T790M, and EGFR^L858R/T790M/C797S.
# (§3) One hundred thirty six compounds were studied using the kinase (EGFR) and BA/F3 assays described herein, with more than 60% of the tested compounds providing IC50<50 nM values in all six assays. Accordingly, compounds of the invention are a new general class of kinase inhibitors, including potent inhibitors of EGFR mutants.
# (§4) Exemplary kinase inhibition (Kinase) and anti-proliferation activity (Ba/F3) data are shown in Table 1 for certain compounds of the invention and are categorized according to the below legend.
# [2] = molecular target: Ba/F3 EGFR-Del19/C797S (Homo sapiens, UniProt P00533, C797S, cells depend on it, form not given); assay: Ba/F3 viability assay (CellTiter-Glo), EGFR-Del19/C797S (DC); type: cell-based; conditions: Ba/F3 EGFR-Del19/C797S anti-proliferation; read-out: BAF3 DC IC50
# Text: (§5) Inhibition of cell proliferation can be studied using Ba/F3 viability assays, including the Promega CellTiter-Glo cell viability assay. This assay can be used to study the effect of compounds described herein in the following assays: (1) Ba/F3 Parental; (2) Ba/F3 EGFR-Del19/T790M; (3); Ba/F3 EGFR-Del19/C797S; and (4) Ba/F3 EGFR-Del119/T790M/C797S.
# as §3, §4
# [3] = molecular target: Ba/F3 EGFR-Del19/T790M (Homo sapiens, UniProt P00533, T790M, cells depend on it, form not given); assay: Ba/F3 viability assay (CellTiter-Glo), EGFR-Del19/T790M (DT); type: cell-based; conditions: Ba/F3 EGFR-Del19/T790M anti-proliferation; read-out: BAF3 DT IC50
# Text: as §5, §3, §4
# [4] = molecular target: EGFR^L858R (Homo sapiens, UniProt P00533, L858R); assay: HTRF KinEASE-TK in vitro kinase assay, EGFR L858R (L); type: biochemical; conditions: EGFR L858R kinase inhibition
# Text: as §1, §2, §3, §4
# [5] = molecular target: EGFR^L858R/T790M/C797S (Homo sapiens, UniProt P00533, C797S/L858R/T790M); assay: HTRF KinEASE-TK in vitro kinase assay, EGFR L858R/T790M/C797S (LTC); type: biochemical; conditions: EGFR L858R/T790M/C797S kinase inhibition
# Text: as §1, §2, §3, §4
# [6] = molecular target: Ba/F3 EGFR-Del19/T790M/C797S (Homo sapiens, UniProt P00533, T790M/C797S, cells depend on it, form not given); assay: Ba/F3 viability assay (CellTiter-Glo), EGFR-Del19/T790M/C797S (DTC); type: cell-based; conditions: Ba/F3 EGFR-Del19/T790M/C797S anti-proliferation; read-out: BAF3 DTC IC50
# Text: as §5, §3, §4
# EGFR^L858R/T790M/C797S, sequence (P00533 25-1210 T790M/C797S/L858R): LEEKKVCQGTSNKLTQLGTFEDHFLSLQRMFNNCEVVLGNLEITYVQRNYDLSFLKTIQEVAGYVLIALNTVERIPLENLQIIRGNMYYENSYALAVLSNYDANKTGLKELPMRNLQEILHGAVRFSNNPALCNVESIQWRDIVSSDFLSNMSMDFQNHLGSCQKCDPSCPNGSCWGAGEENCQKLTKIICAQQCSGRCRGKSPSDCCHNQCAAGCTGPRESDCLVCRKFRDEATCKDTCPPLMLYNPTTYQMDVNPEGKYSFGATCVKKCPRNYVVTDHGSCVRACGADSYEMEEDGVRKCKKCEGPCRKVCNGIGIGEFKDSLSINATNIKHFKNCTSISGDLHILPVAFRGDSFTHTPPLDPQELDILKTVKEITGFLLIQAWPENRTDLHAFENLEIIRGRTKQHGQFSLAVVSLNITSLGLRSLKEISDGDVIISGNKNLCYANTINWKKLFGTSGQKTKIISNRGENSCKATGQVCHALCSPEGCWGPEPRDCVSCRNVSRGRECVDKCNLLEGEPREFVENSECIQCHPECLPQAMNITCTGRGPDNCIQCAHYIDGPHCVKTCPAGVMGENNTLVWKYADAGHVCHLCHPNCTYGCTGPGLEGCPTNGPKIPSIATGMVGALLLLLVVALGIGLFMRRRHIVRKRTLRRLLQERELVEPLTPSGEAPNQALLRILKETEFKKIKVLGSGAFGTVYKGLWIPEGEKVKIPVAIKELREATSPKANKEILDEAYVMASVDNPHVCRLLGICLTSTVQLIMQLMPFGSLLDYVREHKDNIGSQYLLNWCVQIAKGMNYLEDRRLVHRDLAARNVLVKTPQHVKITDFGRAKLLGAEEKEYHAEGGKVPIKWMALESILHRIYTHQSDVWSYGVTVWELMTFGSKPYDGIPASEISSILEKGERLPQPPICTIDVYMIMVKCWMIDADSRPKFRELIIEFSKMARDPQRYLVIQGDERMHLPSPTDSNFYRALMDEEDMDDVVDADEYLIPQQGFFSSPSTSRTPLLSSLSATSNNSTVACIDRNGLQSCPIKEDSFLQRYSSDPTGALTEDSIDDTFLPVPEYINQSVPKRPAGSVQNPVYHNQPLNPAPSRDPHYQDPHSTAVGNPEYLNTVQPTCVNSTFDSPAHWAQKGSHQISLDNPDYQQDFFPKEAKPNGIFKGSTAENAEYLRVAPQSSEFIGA
# Ba/F3 EGFR-Del19/T790M/C797S, sequence (P00533 with tags, fused parts or gaps DEL746-750/T790M/C797S, form open): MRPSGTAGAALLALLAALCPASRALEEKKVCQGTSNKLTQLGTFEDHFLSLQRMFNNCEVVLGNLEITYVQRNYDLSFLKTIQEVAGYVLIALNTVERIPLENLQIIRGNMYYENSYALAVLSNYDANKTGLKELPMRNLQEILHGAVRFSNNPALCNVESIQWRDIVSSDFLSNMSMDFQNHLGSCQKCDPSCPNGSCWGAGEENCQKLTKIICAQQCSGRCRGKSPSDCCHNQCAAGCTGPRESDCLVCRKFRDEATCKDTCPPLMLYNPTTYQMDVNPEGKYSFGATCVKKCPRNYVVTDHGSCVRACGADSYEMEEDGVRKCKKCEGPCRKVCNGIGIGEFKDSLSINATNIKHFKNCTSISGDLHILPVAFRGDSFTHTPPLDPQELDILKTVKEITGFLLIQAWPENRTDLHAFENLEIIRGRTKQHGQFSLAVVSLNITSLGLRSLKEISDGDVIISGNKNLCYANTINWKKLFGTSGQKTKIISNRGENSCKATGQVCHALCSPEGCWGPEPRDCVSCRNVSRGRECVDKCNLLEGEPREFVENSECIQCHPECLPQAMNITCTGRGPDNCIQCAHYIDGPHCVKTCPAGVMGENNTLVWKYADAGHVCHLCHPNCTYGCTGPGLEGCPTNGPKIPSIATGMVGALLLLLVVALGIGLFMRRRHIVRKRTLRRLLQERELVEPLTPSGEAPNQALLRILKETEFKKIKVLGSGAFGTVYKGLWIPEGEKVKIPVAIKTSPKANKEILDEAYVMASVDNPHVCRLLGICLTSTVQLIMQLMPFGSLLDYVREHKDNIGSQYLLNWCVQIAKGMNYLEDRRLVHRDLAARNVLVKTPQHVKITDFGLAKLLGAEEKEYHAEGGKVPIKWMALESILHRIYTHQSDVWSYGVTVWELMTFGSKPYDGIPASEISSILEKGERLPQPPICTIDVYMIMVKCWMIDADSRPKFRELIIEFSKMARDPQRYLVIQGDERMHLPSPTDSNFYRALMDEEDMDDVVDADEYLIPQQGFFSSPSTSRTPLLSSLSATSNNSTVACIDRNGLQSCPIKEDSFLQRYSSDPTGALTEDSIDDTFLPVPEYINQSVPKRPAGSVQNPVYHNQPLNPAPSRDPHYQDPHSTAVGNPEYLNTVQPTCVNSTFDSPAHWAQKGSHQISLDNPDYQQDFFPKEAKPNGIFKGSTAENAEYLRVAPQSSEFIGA
# Ba/F3 EGFR-Del19/T790M, sequence (P00533 with tags, fused parts or gaps DEL746-750/T790M, form open): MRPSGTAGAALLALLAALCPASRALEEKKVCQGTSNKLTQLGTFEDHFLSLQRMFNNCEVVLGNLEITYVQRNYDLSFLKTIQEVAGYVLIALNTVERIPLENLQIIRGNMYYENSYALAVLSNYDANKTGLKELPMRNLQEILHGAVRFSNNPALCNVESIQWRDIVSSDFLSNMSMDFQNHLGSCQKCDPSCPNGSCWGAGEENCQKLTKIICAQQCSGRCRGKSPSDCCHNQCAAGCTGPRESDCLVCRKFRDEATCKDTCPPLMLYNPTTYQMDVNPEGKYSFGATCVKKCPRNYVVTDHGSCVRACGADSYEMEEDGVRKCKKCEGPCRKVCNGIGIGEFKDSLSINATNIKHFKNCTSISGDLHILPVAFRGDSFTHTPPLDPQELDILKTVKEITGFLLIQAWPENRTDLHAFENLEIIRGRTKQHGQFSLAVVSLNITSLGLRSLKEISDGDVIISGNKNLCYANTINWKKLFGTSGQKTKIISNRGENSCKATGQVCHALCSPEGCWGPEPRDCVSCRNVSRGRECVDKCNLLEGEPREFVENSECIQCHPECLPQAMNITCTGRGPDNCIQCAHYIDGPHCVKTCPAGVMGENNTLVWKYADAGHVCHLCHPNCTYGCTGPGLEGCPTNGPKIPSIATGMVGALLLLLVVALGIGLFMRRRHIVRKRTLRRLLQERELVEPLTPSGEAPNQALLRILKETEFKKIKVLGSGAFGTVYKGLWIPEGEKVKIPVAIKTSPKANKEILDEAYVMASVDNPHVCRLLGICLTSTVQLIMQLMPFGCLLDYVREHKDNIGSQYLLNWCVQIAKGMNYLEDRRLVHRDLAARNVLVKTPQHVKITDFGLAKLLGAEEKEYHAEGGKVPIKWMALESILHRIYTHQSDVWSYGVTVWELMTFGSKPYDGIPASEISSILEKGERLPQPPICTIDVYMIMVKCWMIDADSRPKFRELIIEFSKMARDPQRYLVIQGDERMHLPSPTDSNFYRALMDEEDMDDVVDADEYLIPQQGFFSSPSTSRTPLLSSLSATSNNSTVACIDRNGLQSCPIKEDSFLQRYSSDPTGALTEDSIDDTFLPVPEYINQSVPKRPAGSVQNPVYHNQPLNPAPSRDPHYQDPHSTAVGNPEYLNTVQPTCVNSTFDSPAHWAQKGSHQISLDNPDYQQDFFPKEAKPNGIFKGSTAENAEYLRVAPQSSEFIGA
# EGFR^L858R, sequence (P00533 25-1210 L858R): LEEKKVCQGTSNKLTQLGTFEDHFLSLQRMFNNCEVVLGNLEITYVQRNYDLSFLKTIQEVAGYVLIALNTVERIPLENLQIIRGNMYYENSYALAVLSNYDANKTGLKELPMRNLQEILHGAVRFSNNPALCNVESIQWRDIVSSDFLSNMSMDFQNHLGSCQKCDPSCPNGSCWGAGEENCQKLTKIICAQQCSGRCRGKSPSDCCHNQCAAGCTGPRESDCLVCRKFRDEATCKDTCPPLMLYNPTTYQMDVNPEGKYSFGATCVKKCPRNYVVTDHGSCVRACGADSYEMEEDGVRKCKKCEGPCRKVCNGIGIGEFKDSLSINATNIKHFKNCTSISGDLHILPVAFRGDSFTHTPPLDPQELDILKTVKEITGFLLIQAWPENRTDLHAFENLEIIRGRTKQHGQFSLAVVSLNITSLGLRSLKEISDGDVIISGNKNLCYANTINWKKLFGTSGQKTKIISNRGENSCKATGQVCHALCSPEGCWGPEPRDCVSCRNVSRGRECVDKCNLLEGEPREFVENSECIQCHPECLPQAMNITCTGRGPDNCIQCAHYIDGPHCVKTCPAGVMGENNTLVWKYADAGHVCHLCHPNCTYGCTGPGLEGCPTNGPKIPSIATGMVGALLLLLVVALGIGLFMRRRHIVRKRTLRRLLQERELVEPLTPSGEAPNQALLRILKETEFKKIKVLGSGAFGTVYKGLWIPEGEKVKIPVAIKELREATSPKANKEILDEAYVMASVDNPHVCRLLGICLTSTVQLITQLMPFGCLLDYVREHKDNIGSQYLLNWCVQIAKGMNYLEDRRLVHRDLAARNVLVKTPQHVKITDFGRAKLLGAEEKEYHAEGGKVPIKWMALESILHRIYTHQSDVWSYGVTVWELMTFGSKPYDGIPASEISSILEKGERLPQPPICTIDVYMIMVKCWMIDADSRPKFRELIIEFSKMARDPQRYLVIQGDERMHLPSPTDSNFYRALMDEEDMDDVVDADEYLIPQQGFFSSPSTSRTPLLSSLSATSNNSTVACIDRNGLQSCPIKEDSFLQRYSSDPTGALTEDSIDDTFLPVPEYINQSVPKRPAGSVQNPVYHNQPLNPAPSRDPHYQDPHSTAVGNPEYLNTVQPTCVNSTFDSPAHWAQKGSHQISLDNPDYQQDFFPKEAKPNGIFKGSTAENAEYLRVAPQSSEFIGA
SMILES,IC50 [1] [nM],IC50 [4] [nM],IC50 [5] [nM],GI50 [2] [nM],GI50 [3] [nM],GI50 [6] [nM]
COc1cc(-c2cnc3cc2O[C@@H](C)CCOc2c(cnn2C)-c2nccc(n2)N3)ccc1CN1CCN(C)CC1 [(147)],< 50,< 50,< 50,< 50,< 50,< 50
C[C@H]1CCOc2c(cnn2C)-c2nccc(n2)Nc2cc(c(-c3cccc(NCCN(C)C)c3)cn2)O1 [(148)],< 50,< 50,< 50,< 50,< 50,< 50
COc1cc(CN2CCN(C)CC2)ccc1-c1cnc2cc1O[C@@H](C)CCOc1c(cnn1C)-c1nccc(n1)N2 [(149)],< 50,< 50,< 50,< 50,50 to 100,< 50
CCOc1cc(-c2cnc3cc2O[C@@H](C)CCOc2c(cnn2C)-c2nccc(n2)N3)ccc1CN1CCN(C)CC1 [(150)],< 50,< 50,< 50,< 50,< 50,< 50
"C[C@H]1CCOc2c(cnn2C)-c2nccc(n2)Nc2cc(c(Cl)cn2)O1 [(151), (10S)-13-chloro-5,10-dimethyl-7,11-dioxa-4,5,15,17,21,22-hexazatetracyclo[16.3.1.112,16.02,6]tricosa-1(22),2(6),3,12(23),13,15,18,20-octaene]",< 50,50 to 100,< 50,100 to 1000,100 to 1000,100 to 1000
C[C@H]1CCOc2c(cnn2C)-c2nccc(n2)Nc2cc(c(-c3ccc(N4CCN(C)CC4)nc3)cn2)O1 [(152)],< 50,< 50,< 50,< 50,< 50,< 50
C[C@H]1CCOc2c(cnn2C)-c2nccc(n2)Nc2cc(ccn2)O1 [(153)],< 50,100 to 1000,< 50,100 to 1000,100 to 1000,100 to 1000
C[C@H]1CCOc2c(cnn2C)-c2nccc(n2)Nc2cc(c(-c3cccc(CN4CCN(C)CC4)c3)cn2)O1 [(159)],< 50,< 50,< 50,< 50,< 50,< 50
C[C@H]1CCOc2c(cnn2C)-c2nccc(n2)Nc2cc(c(-c3ccc(CN4CCN(C)CC4)cc3)cn2)O1 [(160)],< 50,< 50,< 50,< 50,< 50,< 50
"CC1CCOc2c(cnn2C)-c2nccc(n2)Nc2cc(c(-c3ccc(CN4CCN(C)CC4)cc3)cn2)O1 (stereo not drawn) [(169), 5,10-dimethyl-13-[4-[(4-methylpiperazin-1-yl)methyl]phenyl]-7,11-dioxa-4,5,15,17,21,22-hexazatetracyclo[16.3.1.112,16.02,6]tricosa-1(22),2(6),3,12(23),13,15,18,20-octaene]",< 50,< 50,< 50,< 50,< 50,< 50

# The next lines start with results.
IC50 [1] [nM],IC50 [4] [nM],IC50 [5] [nM],SMILES,GI50 [2] [nM],GI50 [3] [nM],GI50 [6] [nM]
< 50,< 50,< 50,"C[C@H]1CCOc2c(cnn2C)-c2nccc(n2)Nc2cc(c(-c3cc(CN4CCN(C)CC4)n(C)c3)cn2)O1 [(127), (10S)-5,10-dimethyl-13-[1-methyl-5-[(4-methylpiperazin-1-yl)methyl]pyrrol-3-yl]-7,11-dioxa-4,5,15,17,21,22-hexazatetracyclo[16.3.1.1^12,16.0^2,6]tricosa-1(22),2(6),3,12(23),13,15,18,20-octaene]",< 50,< 50,< 50
< 50,< 50,< 50,C[C@H]1CCOc2c(cnn2C)-c2nccc(n2)Nc2cc(c(-c3cnc(N4CCN(C)CC4)c(OCC(F)(F)F)c3)cn2)O1 [(128)],50 to 100,50 to 100,< 50
< 50,< 50,< 50,C[C@H]1CCOc2c(cnn2C)-c2nccc(n2)Nc2cc(c(-c3ccc(N(C)CCN(C)C)cc3)cn2)O1 [(133)],< 50,< 50,< 50
< 50,< 50,< 50,COc1cc(-c2cnc3cc2O[C@@H](C)CCOc2c(cnn2C)-c2nccc(n2)N3)cnc1N1CCN(C)CC1 [(137)],< 50,< 50,< 50
< 50,< 50,< 50,C[C@H]1CCOc2c(cnn2C)-c2nccc(n2)Nc2cc(c(-c3ccc(N(C)CCN(C)C)nc3)cn2)O1 [(138)],50 to 100,50 to 100,< 50
< 50,< 50,< 50,C[C@H]1CCOc2c(cnn2C)-c2nccc(n2)Nc2cc(c(-c3cnn(C4CCNCC4)c3)cn2)O1 [(141)],< 50,< 50,< 50
< 50,< 50,< 50,C[C@H]1CCOc2c(cnn2C)-c2nccc(n2)Nc2cc(c(-c3cc(CN4CCOCC4)n(C)n3)cn2)O1 [(144)],< 50,< 50,< 50
< 50,100 to 1000,< 50,COC(=O)c1cc(-c2cnc3cc2O[C@@H](C)CCOc2c(cnn2C)-c2nccc(n2)N3)n(C)c1 [(145)],100 to 1000,100 to 1000,100 to 1000
< 50,< 50,< 50,C[C@H]1CCOc2c(cnn2C)-c2nccc(n2)Nc2cc(c(-c3ccc(CN4CCN(C)CC4)c(OCC(F)(F)F)c3)cn2)O1 [(146)],< 50,< 50,< 50

# From patent publication US20240150375A1, “MACROCYCLIC COMPOUNDS AND USES THEREOF” (Theseus Pharmaceuticals, Inc., priority 2021, published 2024)
